Test: Measurement of Liposomal pKa with TNS, empty LNP (Experimental Example 11)
Type: physicochemical
Settings: cationic lipid:DOPC:Chol:DMG-PEG2k=52.5:7.5:40:1.5
Procedure: 20 mM Citrate buffer, sodium phosphate buffer and tris HCl buffer each containing NaCl at a final concentration of 150 mM and adjusted to various pHs within the range of pH 3.0-10.0 were prepared. LNP prepared in [Experimental Example 3], 1, was diluted with PBS to a lipid concentration of 0.5 mM. TNS (manufactured by Sigma) was diluted with ultrapure water to 0.6 mM. TNS solution (2 μL), various LNP solutions (12 μL), and buffers adjusted to various pHs (186 μL) were added to a black 96 well plate. The plate was protected from light and shaken at 400 rpm for 10 min. The fluorescence intensity (excitation: 321 nm/emission: 447 nm) was measured using a plate reader (manufactured by TECAN). The relative fluorescence intensity was calculated as a percentage, with the maximum value of the fluorescence intensity in each LNP being 100% and the minimum value being 0%. Furthermore, the pH at which the relative fluorescence intensity was 50% was taken as Liposomal pKa.
For the evaluation of Liposomal pKa, empty LNP not encapsulating nucleic acid was used. The empty LNP (cationic lipid:DOPC:Chol:DMG-PEG2k=52.5:7.5:40:1.5) was produced by performing particle preparation in the method described in [Experimental Example 10] without using a nucleic acid.
Liposomal pKa was calculated by the method described in [Experimental Example 3].

- Liposomal pKa: improved pKa
Structure (SMILES): CCCCCCCC/C=C\CCCCCCCC(=O)Oc1ccc(CC(=O)NCCC2CCN(CCSSCCN3CCC(CCNC(=O)Cc4ccc(OC(=O)CCCCCCC/C=C\CCCCCCCC)cc4)CC3)CC2)cc1 [O-Ph-amide-P4C2]

Reference: patent publication US12064513B2, “Cationic lipid exhibiting improved intracellular dynamics” (NOF CORPORATION, priority 2018, dated 2024)
